Measurements reported in patent US4812567A, “Polycyclic spiroimides with psychotropic activity” (American Home Products Corporation, priority 1986, dated 1989).
Structures can show the parent of a compound that is named as a salt.

System: conditioned avoidance (shelf-jump response)
Test: conditioned avoidance (shelf-jump response) test in rats
Type: in vivo, Male CD rats
Excerpt: A test designed to determine the potential antipsychotic activity of the compounds of this invention is the conditioned avoidance (shelf-jump response) test. Male CD rats (Charles River) maintained at approximately 400-450 gm body weight are used. […] A moveable wall, controlled by a motor, determines whether the rat has access to the shelf at any time during the experiment. The experimental chamber also contains a house light and sonalert. A steel grid floor in the main chamber is wired for presentation of electric shock. Each trial consists of a […]-second warning tone (conditioned stimulus), continuing for an additional fifteen seconds accompanied by electric shock, (unconditioned stimulus). A response (jumping onto the exposed shelf of the upper chamber) occurring during the initial fifteen-second warning tone is considered an avoidance response, while a response occurring during shock delivery is considered an escape response. Trials are presented on a fixed interval schedule of one minute. The session consists of thirty-six trials. Animals are run twice weekly with control sessions always preceding a drug run, and with at least one day intervening. Compounds are administered i.p. or p.o. at appropriate pre-treatment times to a minimum of five rats at each dose level over a range of doses. […] Response counts are summed over all subjects at a given dose. […] This number is expressed as a percentage of the total trials. […] Potential antipsychotic compounds suppress avoidance responding and increase escape responding.

## O=C1CC2(CCC3CCC2C3)C(=O)N1CCCCN1CCN(c2ncccn2)CC1 (centres unmarked) [Example 1, 1'-[4-[4-(2-Pyrimidinyl)-1-piperazinyl]butyl]spiro[bicyclo[3.2.1]octane-2,3'-pyrrolidine]-2',5'-dione, dihydrochloride, hemihydrate]
i.p.
  Active at: 40 mg/kg

## O=C1CC2(CCCC2)CC(=O)N1CCCCN1CCN(c2cncc(Cl)n2)CC1 [Example 4, 8-[4-[4-(6-Chloro-2-pyrazinyl)-1-piperazinyl]butyl]-8-azaspiro[4,5]decane-7,9-dione dihydrochloride, hydrate]
Orally administered
  Active at: 40 mg/kg

## O=C1CC2(CCCC2)CC(=O)N1CCCCN1CCN(c2nccnc2Cl)CC1 [Example 5, 8-[4-[4-(3-Chloro-2-pyrazinyl)-1-piperazinyl]butyl]-8-azaspiro[4,5]decane-7,9-dione dihydrochloride, hemihydrate]
i.p.
  Active at: 40 mg/kg

## O=C1CC2(CCCC2)CC(=O)N1CCCCN1CCN(c2ccc(Cl)nn2)CC1 [Example 6, 8-[4-[4-(6-Chloro-3-pyridazinyl]-1-piperazinyl]-8-azaspiro[4,5]decane-7,9-dione dihydrochloride]
i.p.
  Active at: 40 mg/kg

## Octahydro-1'-[4-[4-(2-Pyrimidinyl)-1-piperazinyl]butyl]spiro[4,7-methano-5H-indene-5,3'-pyrrolidine]-2',5'-dione, dihydrochloride [Example 2]
i.p.
  Active at: 40 mg/kg
